Assays:
[1] = biological target: T1, mouse VPAC1 receptor (Mus musculus, UniProt P97751); assay: CREB phosphorylation by PACAP stimulus, Western blot, VPAC1/CHO cells; format: cell-based; conditions: PA-8 10 pM to 10 nM, FIG. 4B
T1 construct: expressed in transfected cells; host or cells: CHO cells
T1 sequence (P97751 31-459): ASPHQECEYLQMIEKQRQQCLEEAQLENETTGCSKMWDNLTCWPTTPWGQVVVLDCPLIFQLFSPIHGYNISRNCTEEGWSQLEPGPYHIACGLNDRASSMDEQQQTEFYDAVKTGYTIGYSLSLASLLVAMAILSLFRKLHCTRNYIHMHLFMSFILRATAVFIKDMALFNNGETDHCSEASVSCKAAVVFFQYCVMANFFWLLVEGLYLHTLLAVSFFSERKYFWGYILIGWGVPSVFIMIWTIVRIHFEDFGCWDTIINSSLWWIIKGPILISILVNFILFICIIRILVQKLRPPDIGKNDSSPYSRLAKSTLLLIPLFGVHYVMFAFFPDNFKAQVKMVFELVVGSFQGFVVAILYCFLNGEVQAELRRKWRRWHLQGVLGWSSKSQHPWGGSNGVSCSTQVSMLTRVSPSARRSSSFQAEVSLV
Protocol: The effect of each compound on the phosphorylation of CREB (cAMP-responsive element-binding protein) produced by a PACAP stimulus was examined by Western blot analysis using an anti-phosphorylated CREB (pCREB) antibody with a mouse PAC1 receptor-expressing CHO cells (PAC1/CHO cells) and a mouse VPAC1 receptor-expressing CHO cells (VPAC1/CHO cells).
Specifically, treatment with a compound (PA-8, compound 2j and compound 2o) at 10 pM to 10 nM or a solvent therefor, DMSO (VEH: 0.1% DMSO-containing phosphate buffer solution) was performed for 30 minutes, 1 nM PACAP was then added, and protein was recovered within 30 minutes after a PACAP stimulus.

[2] = system: psoriasis mouse model; assay: Psoriasis mouse model (imiquimod); format: in vivo, ICR mice; conditions: 30 mg/kg p.o. 30 minutes before 1 hour video observation; FIG. 14
Protocol: The present test was carried out with reference to the method of van der Fits et al. that is a test system published as a method for evaluating itch in animals (van der Fits L., Mounts S., Voerman J S A., et al.: Imiquimod-Induced Psoriasis-Like Skin Inflammation in Mice Is Mediated via the IL-23/IL-17 Axis, J. Immunol., 182, 5836-5845, 2009).
Five-week-old ICR mice (20 mice) were each placed in a cage, and were then conditioned for 1 week. Thereafter, three days before initiation of the test, the waist of each mouse was shaved. Then, 62.5 mg of commercially available imiquimod cream (5% Beselna Cream; MOCHIDA PHARMACEUTICAL CO., LTD.) was applied onto the shaved waist skin of the mice once a day for 5 days, so as to produce imiquimod-induced psoriasis model. Twenty-four hours after the final application of the cream (Day 5), video observation was carried out for 1 hour. The shaved 20 mice were divided into 5 groups (4 mice per group), namely, a 30 mg/kg PA-8 oral (p.o.) administration group, a 30 mg/kg compound 2o oral (p.o.) administration group, a 30 mg/kg PA-9 oral (p.o.) administration group, a 30 mg/kg compound 3d (p.o.) administration group, and a solvent administration group (VEH: oral administration of 10% DMSO aqueous solution). Oral administration was carried out 30 minutes before initiation of the video observation.

[3] = system: dry skin itch mouse model; assay: Dry skin itch mouse model (AEW treatment); format: in vivo, ICR mice; conditions: oral PA-8 3, 10 or 30 mg/kg; observed 1 hour from 30 minutes after administration; FIG. 3
Protocol: The present test was carried out with reference to the method of Miyamoto et al. that is a test system published as a method for evaluating itch in animals (Miyamoto T., Nojima H., Shinkado T., et al.: Itch-associated response induced by experimental dry skin in mice, Jpn. J. Phamacol., 88, 285-292, 2002).
Five-week-old ICR mice (40 mice) were each placed in a cage, and were then conditioned for 1 week. Thereafter, three days before initiation of the test, the rostral back of each mouse was shaved (treatment method A). The thus shaved 40 mice were divided into 5 groups (8 mice/group), namely, into a 3 mg/kg PA-8 oral (p.o.) administration group, a 10 mg/kg PA-8 oral (p.o.) administration group, a 30 mg/kg PA-8 oral (p.o.) administration group, a comparative group, and a control group.
In the PA-8 administration groups, the mice, which had undergone a shaving treatment (treatment method A), were subjected to ether anesthesia. Thereafter, a cotton (2×2 cm) impregnated with a mixed solution of acetone (A): diethyl ether (E) (1:1) was applied to the rostral back of each mouse for 15 seconds, and then, a cotton impregnated with ion exchange water (W) was applied thereto for 30 seconds [hereinafter, a series of treatments are abbreviated as an AEW treatment (treatment method B)]. The AEW treatment was carried out twice a day, with intervals of 8 hours, for 5 days. […]

[4] = system: Compound 48/80-induced itch behavior in mice; assay: Itch behavior induced by Compound 48/80 intradermal administration; format: in vivo, mouse; conditions: intrathecal pre-administration (i.t., 10 minutes before i.d.), 1 nmol; Compound 48/80 100 μg/10 μL; FIG. 11
Protocol: Compound 48/80 (100 μg/10 μL) was intradermally injected into the waist of each mouse (intradermal injection, i.d.). The reaction of biting, licking or scratching the injected site was defined as itch behavior, and the behavioral time was counted every 5 minutes. […] DMSO (10% solution, dissolved in normal saline) is a solvent for PA-8 or PA-9.

Question: For `C=CCOc1ccc(C2CC(=O)Nc3nc(N)[nH]c(=O)c32)cc1OC` (stereo not shown) [PA-8], which “CREB phosphorylation by PACAP (1 nM)” value [1] is on record?
Answer: Its value is “did not suppress CREB phosphorylation”.

Question: And the “itch behavior induced by application of imiquimod (time spent in scratching)” value [2]?
Answer: Its value is “significantly suppressed”.

Question: And the “scratching behavior induced by the AEW treatment (time spent in scratching)” value [3]?
Answer: The value was “significantly suppressed”.

Question: And the “Compound 48/80-induced itch behavior” value [4]?
Answer: The value was “almost completely suppressed”.

From patent US20220184081A1, “ANTIPRURITIC AGENT USING PAC1 RECEPTOR ANTAGONIST” (KAGOSHIMA UNIVERSITY, priority 2019, published 2022)
